The source of these data is patent US20120270237A9, “METHODS FOR THE IDENTIFICATION OF KINASE INTERACTING MOLECULES AND FOR THE PURIFICATION OF KINASE PROTEINS” (Cellzone AG, priority 2009, published 2012).

Each structure is given as a SMILES string.

Common to all, as to experiment: Kinobeads competition binding, HeLa Placenta lysate mix
What all share (design): capturing and identification of kinases from mixed HeLa placenta lysates; endogenous in cells; host or cells: mixed lysate of HeLa cells and placenta tissue
Common to all, as to details: 10 μM free compound

For experiment [1], the target named is AurB (Homo sapiens, UniProt Q96GD4). The procedure: (§1) To one aliquot of cell lysate 10 μM of the free compound (FIG. 3, CZC31326) was added and allowed to bind to proteins in the lysate. Then the affinity matrix with the immobilized compound was added to capture proteins that were not interacting with the previously added free compound. Beads were separated from the lysate and bead bound proteins were eluted in SDS sample buffer and subsequently separated by SDS-Polyacrylamide gel electrophoresis (FIG. 10). Suitable gel bands were cut out and subjected to in-gel proteolytic digestion with trypsin. The second lysate aliquot was processed identically, however no free compound was added (DMSO solvent control). Peptides originating from samples 1 and 2 were labeled with iTRAQ reagents (iTRAQ 114 and iTRAQ 117) and the combined samples were analyzed with a nano-flow liquid chromatography system coupled online to a tandem mass spectrometer (LC-MS/MS) experiment followed by iTRAQ reporter ion quantification in the MS/MS spectra as described in Example 2.

Experiment [2] concerns the target CaMK2d (Homo sapiens, UniProt Q13557). The procedure: as §1
Experiment [3] has as its target FES (Homo sapiens, UniProt P07332). The procedure: as §1
Experiment [4] has as its target T1, GAK (Homo sapiens, UniProt O14976).
T1 sequence (O14976 1-1311): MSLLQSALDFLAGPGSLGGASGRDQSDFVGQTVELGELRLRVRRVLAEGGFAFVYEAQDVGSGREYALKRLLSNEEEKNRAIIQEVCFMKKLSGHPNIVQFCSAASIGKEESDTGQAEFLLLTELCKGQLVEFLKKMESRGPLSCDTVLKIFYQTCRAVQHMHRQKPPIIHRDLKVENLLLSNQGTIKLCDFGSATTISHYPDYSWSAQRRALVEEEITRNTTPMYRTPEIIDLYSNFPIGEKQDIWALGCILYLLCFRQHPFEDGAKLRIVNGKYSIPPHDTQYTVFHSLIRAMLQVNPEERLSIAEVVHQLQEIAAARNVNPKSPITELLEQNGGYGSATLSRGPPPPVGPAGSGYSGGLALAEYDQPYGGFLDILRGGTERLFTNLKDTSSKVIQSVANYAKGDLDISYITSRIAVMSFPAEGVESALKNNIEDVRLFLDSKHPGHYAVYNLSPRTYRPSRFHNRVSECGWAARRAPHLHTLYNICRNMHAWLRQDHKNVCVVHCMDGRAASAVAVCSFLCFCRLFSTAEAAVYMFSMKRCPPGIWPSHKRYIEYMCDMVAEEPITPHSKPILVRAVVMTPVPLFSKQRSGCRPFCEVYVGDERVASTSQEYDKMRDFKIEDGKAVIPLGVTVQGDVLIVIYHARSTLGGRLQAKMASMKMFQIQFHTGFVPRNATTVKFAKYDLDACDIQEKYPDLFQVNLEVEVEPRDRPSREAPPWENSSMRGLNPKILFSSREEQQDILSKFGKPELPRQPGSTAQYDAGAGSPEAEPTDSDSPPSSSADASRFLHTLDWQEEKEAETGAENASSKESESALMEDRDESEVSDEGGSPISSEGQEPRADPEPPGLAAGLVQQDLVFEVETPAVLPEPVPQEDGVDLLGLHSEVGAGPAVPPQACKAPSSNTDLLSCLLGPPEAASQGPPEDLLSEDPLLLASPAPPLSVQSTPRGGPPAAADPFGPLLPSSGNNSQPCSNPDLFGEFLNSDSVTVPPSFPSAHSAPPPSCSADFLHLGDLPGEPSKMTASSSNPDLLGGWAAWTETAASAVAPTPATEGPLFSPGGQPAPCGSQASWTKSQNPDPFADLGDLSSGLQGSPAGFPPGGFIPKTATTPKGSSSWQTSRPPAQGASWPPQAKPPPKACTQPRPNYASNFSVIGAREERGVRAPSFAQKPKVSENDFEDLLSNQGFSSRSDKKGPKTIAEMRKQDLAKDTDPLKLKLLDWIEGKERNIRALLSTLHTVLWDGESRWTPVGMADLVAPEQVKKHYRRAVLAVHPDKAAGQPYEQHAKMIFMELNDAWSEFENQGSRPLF
How it is done: as §1

Experiment [5] addresses MARK3 (Homo sapiens, UniProt P27448). The procedure:
as §1

Experiment [6] concerns the target MLK3 (Homo sapiens, UniProt Q16584). The procedure: as §1

MLK3, sequence (Q16584 whole entry): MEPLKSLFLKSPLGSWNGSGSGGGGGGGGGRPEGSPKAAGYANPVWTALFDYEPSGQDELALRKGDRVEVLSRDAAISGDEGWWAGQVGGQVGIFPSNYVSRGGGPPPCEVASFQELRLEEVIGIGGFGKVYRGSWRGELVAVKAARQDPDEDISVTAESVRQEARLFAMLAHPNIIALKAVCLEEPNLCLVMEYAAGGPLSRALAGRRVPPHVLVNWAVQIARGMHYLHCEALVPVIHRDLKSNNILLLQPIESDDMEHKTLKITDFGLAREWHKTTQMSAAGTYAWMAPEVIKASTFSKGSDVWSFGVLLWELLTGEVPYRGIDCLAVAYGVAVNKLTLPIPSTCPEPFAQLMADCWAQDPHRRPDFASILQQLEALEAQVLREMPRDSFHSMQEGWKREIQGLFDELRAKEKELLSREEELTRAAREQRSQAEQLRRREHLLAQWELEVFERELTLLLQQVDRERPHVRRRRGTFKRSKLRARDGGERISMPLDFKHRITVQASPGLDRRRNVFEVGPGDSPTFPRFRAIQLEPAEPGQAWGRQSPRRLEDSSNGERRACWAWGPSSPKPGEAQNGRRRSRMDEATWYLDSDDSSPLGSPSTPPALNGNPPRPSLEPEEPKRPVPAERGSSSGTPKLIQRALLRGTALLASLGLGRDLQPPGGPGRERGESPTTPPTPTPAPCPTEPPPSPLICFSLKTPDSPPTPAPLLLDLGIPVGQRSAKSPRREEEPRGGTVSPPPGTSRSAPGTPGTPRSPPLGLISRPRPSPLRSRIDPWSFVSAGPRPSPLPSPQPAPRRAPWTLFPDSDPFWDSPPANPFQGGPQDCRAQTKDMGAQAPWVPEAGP
MARK3, sequence (P27448 whole entry): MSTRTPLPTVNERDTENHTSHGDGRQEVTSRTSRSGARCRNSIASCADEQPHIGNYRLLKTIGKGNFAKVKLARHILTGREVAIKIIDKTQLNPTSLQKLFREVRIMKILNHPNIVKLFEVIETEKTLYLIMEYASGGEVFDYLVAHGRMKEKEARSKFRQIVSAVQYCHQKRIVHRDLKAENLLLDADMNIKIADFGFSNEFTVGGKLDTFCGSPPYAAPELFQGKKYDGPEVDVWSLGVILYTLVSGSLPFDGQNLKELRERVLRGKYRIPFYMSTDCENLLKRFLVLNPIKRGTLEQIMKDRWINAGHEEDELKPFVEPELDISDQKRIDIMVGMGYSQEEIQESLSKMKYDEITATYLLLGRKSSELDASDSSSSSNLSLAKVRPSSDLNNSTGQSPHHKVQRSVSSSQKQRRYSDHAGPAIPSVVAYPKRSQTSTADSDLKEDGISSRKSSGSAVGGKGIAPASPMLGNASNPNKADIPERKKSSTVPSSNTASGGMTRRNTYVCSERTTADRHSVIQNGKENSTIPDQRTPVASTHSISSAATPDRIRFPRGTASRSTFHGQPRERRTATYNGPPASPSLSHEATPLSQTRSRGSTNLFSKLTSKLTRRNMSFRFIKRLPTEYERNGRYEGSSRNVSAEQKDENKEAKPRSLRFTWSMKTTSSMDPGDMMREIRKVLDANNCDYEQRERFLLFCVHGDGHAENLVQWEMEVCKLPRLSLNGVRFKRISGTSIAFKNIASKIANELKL
FES, sequence (P07332 whole entry): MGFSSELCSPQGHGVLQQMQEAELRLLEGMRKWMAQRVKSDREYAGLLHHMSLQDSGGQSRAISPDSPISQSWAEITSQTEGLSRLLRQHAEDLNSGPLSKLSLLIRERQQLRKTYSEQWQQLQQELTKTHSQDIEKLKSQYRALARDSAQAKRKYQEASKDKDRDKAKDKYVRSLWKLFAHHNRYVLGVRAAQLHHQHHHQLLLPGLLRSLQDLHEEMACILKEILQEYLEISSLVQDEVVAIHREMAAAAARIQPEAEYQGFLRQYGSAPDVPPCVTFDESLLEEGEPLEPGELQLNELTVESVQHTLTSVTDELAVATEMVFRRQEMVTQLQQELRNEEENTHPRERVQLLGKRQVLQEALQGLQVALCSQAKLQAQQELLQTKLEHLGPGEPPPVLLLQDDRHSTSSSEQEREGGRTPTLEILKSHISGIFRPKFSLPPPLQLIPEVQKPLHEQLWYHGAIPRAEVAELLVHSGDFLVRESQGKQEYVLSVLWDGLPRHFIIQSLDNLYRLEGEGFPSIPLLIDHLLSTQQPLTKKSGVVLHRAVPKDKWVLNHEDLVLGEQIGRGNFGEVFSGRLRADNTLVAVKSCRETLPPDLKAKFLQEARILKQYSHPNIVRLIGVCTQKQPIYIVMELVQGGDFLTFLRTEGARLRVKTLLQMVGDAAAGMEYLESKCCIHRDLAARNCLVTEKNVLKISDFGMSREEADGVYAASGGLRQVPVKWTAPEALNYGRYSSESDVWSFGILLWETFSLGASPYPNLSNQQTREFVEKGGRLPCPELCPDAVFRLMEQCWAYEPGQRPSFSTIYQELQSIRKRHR
AurB, sequence (Q96GD4 whole entry): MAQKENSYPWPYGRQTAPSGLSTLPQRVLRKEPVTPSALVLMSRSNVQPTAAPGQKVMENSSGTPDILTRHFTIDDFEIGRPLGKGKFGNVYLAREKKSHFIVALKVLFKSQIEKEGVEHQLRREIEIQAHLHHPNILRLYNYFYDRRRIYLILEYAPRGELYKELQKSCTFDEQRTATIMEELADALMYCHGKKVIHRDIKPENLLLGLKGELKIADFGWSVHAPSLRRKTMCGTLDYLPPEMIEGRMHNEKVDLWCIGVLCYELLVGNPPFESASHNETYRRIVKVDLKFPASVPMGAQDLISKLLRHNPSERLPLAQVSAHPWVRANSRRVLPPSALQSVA
CaMK2d, sequence (Q13557 whole entry): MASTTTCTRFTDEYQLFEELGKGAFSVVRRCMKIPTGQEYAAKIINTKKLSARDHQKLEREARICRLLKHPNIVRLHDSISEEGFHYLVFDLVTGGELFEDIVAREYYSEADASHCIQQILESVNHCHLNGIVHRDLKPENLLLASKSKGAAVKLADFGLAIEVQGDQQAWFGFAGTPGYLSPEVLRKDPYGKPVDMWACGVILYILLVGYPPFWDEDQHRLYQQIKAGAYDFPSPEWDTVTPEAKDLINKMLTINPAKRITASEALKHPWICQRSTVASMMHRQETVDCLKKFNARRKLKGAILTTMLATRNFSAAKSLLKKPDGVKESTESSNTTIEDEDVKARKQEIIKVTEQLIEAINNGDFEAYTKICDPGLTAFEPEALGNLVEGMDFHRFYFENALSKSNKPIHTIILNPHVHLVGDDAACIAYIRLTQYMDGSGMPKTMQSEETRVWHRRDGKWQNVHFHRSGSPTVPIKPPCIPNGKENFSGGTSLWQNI

For orientation: inhibition means how much of the control response was suppressed. On to `CS(=O)(=O)Nc1ccccc1Nc1nc(Nc2cccc(OCCN)c2)ncc1Cl` [CZC31326, N-(2-(2-(3-(2-aminoethoxy)phenylamino)-5-chloropyrimidin-4-ylamino)phenyl)methanesulfonamide], for which the inhibition at 10 µM was found to be 90.8% in experiment [1]; 72.1% in experiment [2]; 95.1% in experiment [3]; 93.6% in experiment [4]; 93.1% in experiment [5]. The compound also displayed a Competition % in experiment [6] of 93.8%.
